# Patent publication US20160108381A1, “DNA POLYMERASES AND MUTANTS THEREOF” (LIFE TECHNOLOGIES CORPORATION, priority 2001, published 2016)
# T1: Clostridium stercorarium DNA polymerase, N-terminal His6 tag (Cst-His), SEQ ID NO:14 (Thermoclostridium stercorarium, UniProt L7VMI6)
# T1 sequence (L7VMI6 with tags, fused parts or gaps): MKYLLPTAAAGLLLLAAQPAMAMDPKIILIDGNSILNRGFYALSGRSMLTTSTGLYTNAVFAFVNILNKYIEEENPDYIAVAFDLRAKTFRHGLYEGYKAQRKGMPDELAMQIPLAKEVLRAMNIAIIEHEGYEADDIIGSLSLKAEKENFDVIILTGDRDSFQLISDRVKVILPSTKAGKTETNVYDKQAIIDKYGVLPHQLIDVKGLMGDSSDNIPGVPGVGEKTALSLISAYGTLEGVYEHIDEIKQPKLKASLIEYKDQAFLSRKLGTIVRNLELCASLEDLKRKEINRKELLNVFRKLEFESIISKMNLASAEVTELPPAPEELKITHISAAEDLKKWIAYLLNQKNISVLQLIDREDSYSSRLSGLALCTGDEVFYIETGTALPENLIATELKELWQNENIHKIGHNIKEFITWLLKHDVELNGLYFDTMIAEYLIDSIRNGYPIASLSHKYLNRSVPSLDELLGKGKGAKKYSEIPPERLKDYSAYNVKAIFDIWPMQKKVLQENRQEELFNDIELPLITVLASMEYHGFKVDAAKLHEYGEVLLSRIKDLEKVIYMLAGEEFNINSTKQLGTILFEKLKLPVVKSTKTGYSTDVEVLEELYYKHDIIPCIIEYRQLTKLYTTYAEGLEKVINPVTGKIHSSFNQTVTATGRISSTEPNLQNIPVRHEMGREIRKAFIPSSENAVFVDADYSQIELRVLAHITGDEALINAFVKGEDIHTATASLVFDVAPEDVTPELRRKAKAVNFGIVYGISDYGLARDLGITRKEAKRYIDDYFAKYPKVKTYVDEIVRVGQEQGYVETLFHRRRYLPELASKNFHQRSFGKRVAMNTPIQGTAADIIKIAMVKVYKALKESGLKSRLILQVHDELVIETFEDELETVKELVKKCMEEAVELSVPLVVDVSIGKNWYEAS
# T2: Clostridium thermosulfurogenes DNA polymerase, N-terminal His6 tag (Cth-His), SEQ ID NO:15 (Thermoanaerobacterium thermosulfurigenes, UniProt Q6X9R5)
# T2 sequence (Q6X9R5 with tags, fused parts or gaps): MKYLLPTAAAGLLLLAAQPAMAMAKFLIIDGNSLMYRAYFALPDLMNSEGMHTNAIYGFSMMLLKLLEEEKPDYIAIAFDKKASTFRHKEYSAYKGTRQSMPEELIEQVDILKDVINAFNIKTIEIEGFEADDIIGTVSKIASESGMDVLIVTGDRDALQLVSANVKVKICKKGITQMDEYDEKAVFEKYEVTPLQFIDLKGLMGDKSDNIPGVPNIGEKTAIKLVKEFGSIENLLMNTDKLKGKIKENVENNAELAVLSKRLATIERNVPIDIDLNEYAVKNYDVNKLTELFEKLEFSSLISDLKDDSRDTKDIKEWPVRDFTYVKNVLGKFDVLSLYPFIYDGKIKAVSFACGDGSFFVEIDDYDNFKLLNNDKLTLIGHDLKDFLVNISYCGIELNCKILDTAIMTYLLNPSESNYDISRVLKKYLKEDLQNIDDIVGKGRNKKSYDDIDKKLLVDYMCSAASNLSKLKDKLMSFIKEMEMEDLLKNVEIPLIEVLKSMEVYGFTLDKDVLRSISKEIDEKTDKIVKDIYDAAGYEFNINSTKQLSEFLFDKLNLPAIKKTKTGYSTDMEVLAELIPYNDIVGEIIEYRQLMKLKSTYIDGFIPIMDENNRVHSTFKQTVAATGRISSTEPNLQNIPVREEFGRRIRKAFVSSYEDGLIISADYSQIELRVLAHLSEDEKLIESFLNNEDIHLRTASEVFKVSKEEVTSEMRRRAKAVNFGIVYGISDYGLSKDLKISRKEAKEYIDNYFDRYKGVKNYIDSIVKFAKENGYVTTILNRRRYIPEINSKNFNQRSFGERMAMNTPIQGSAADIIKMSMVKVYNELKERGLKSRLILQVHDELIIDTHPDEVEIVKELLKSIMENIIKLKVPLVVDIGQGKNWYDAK
# Experiments:
# [1] = target: T1, Clostridium stercorarium DNA polymerase, N-terminal His6 tag (Cst-His), SEQ ID NO:14; assay: Steady-state kinetics, DNA- and RNA-dependent polymerase activity; conditions: Table 34, DNA template, 2 mM MgCl2, 45 °C per footnote
# Excerpt: (§1) Subcloning of genes for Cst and Cth DNA polymerases. In order to improve expression and simplify purification of Cst and Cth DNA polymerase, the genes were subcloned downstream of a T7 promoter and an amino-terminal His6 tag sequence was introduced using Gateway cloning technology (Invitrogen Corporation, Carlsbad, Calif.). The sequence of the DNA oligonucleotide used at the 5′ end of the Cst gene was: 5′-[…] ATAGAC 3′ (SEQ ID NO:37). The sequence of the DNA oligonucleotide used at the 5′ end of the Cth gene was: 5′-[…] […]-3′ (SEQ ID NO:38). The sequence of the DNA oligonucleotide used at the 3′ end of each gene was the same: 5′-[…] […] 3′ (SEQ ID NO:39). Purified pET26B plasmid DNA (Novagen Inc., Madison, Wis.) bearing the gene for Cst or Cth DNA polymerase was amplified by PCR utilizing the primers listed above and Platinum Taq HiFi DNA polymerase (Invitrogen Corporation, Carlsbad, Calif.). PCR products purified by agarose gel electrophoresis were cloned into Gateway vector pDON21 and transferred by recombination into vector pDEST17. […] Each final recombinant plasmid was transformed into the E. coli expression host BL21-AI (Invitrogen Corporation, Carlsbad, Calif.).
# (§2) Purification of Cst-His and Cth-His DNA polymerases. E. coli cells (BL21AI) bearing the plasmid pDEST17 with the gene for Cst-His or Cth-His DNA polymerase were grown in 2.8-1 Fembach flasks in LB broth containing 50 μg/ml ampicillin at 37° C. After the culture reached an A590 of 1.0, expression of DNA polymerase was induced by the addition of 0.2% arabinose for 3 hr. Cells were harvested by centrifugation and stored at −70° C.
# (§3) Steady-state kinetic measurements.
# (§4) The assays were conducted in the presence of 1.5 mM MgCl2 at 55° C. for all enzymes except the Caldibacillus cellulovorans CompA.2 enzyme where 2 mM MgCl2 and 45° C. were used.
# [2] = target: T2, Clostridium thermosulfurogenes DNA polymerase, N-terminal His6 tag (Cth-His), SEQ ID NO:15; assay: as above; conditions: Table 34, DNA template, 2 mM MgCl2, 45 °C per footnote
# Excerpt: as §1, §2, §3, §4
# [3] = target: SuperScript II reverse transcriptase (SSII, SS II RT), a modified M-MLV reverse transcriptase (Moloney murine leukemia virus isolate Shinnick, UniProt P03355); assay: as above; format: biochemical
# Description: (§5) Thermotoga neapolitana (Tne) DNA polymerase mutated to eliminate 3′ to 5′ and 5′ to 3′ exonuclease activity was cloned, engineered and purified as described in U.S. Pat. No. 6,306,588. SuperScript II reverse transcriptase (SS II RT) was from Invitrogen Corporation, Carlsbad, Calif.
# as §3
# (§6) The catalytic rate constant kcat and the Michaelis constant KM were determined for both the DNA-dependent and RNA-dependent polymerase activities for the polypeptides of the invention and these parameters were compared to those of Tne DNA polymerase enzyme and […]™ II reverse transcriptase. […]
# [4] = target: T3, Thermotoga neapolitana (Tne) DNA polymerase, mutated to eliminate 3′ to 5′ and 5′ to 3′ exonuclease activity (Thermotoga neapolitana, UniProt B9K7T2); assay: as above; format: biochemical
# T3 construct: mutated to eliminate 3'-5' and 5'-3' exonuclease activity as in US 6,306,588 (recalled, unsure: D137A and D323A)
# T3 sequence (B9K7T2 entry or part of it, stated change not applied): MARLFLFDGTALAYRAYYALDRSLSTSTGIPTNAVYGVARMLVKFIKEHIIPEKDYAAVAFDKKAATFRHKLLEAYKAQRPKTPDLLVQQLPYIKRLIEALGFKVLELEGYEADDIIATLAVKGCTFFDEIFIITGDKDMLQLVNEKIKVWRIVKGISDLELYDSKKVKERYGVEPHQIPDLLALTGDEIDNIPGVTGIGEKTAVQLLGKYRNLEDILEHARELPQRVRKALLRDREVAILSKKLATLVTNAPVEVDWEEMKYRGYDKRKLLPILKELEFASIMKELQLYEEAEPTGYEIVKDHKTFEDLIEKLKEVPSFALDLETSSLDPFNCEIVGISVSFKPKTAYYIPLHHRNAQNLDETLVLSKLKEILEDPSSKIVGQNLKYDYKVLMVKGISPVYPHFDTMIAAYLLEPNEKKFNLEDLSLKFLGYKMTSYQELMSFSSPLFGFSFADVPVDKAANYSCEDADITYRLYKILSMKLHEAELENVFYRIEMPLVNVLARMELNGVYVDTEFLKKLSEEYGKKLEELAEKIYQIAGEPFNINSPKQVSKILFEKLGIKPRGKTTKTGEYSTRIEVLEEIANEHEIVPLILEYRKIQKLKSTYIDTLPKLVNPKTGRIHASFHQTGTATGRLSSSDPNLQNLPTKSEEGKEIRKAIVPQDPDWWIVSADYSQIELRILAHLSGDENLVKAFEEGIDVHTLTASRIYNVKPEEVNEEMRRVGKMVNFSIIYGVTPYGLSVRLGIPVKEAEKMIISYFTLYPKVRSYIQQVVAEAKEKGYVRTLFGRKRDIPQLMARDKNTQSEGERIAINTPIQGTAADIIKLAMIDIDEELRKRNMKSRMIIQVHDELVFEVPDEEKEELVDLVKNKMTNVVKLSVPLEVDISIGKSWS
# Description: as §5, §3, §6
# [5] = substrate: Cc1cn([C@H]2C[C@H](O)[C@@H](COP(=O)(O)OP(=O)(O)OP(=O)(O)O)O2)c(=O)[nH]c1=O; assay: purified protein, by the assay type; conditions: 55 °C, mean ± SD
# [6] = Table 34, DNA template, 2 mM MgCl2, 45 °C per footnote
# [7] = read-out: Km DNA (dGTP), Table 34, DNA template, 2 mM MgCl2, 45 °C per footnote
# [8] = other: Table 40, (dA)270•(dT)40, dTTP
# [9] = other: Table 40, (rA)250•(dT)30, dTTP
Molecule,Kcat DNA (dGTP) [1] [s⁻¹],Km ([1]; read-out: Km DNA (dGTP)) [µM],Kcat DNA (dGTP) [2] [s⁻¹],Km ([2]; read-out: Km DNA (dGTP)) [µM],"Kcat DNA (dGTP) [3, 6] [s⁻¹]","kCAT DNA-DNA ([3]; Table 40, (dC)n•(dG)35, dGTP, 37 °C, mean ± SD) [s⁻¹]","Km [3, 7] [µM]","Kcat DNA (dGTP) [4, 6] [s⁻¹]","kCAT DNA-DNA ([4]; Table 40, (dC)n•(dG)35, dGTP, 72 °C, mean ± SD) [s⁻¹]","Km [4, 7] [µM]","kcat [5, 8] [s⁻¹]","kcat [5, 9] [s⁻¹]"
Nc1nc2c(ncn2[C@H]2C[C@H](O)[C@@H](COP(=O)(O)OP(=O)(O)OP(=O)(O)O)O2)c(=O)[nH]1 [dGTP],11.5,0.5,57,17.1,15.4,16 ± 2,2.4,17.5,130 ± 32,17.2,–,–
"Clostridium thermosulfurogenes DNA polymerase, N-terminal His6 tag (Cth-His), SEQ ID NO:15 (Thermoanaerobacterium thermosulfurigenes) (protein) MKYLLPTAAAGLLLLAAQPAMAMAKFLIIDGNSLMYRAYFALPDLMNSEGMHTNAIYGFSMMLLKLLEEEKPDYIAIAFDKKASTFRHKEYSAYKGTRQSMPEELIEQVDILKDVINAFNIKTIEIEGFEADDIIGTVSKIASESGMDVLIVTGDRDALQLVSANVKVKICKKGITQMDEYDEKAVFEKYEVTPLQFIDLKGLMGDKSDNIPGVPNIGEKTAIKLVKEFGSIENLLMNTDKLKGKIKENVENNAELAVLSKRLATIERNVPIDIDLNEYAVKNYDVNKLTELFEKLEFSSLISDLKDDSRDTKDIKEWPVRDFTYVKNVLGKFDVLSLYPFIYDGKIKAVSFACGDGSFFVEIDDYDNFKLLNNDKLTLIGHDLKDFLVNISYCGIELNCKILDTAIMTYLLNPSESNYDISRVLKKYLKEDLQNIDDIVGKGRNKKSYDDIDKKLLVDYMCSAASNLSKLKDKLMSFIKEMEMEDLLKNVEIPLIEVLKSMEVYGFTLDKDVLRSISKEIDEKTDKIVKDIYDAAGYEFNINSTKQLSEFLFDKLNLPAIKKTKTGYSTDMEVLAELIPYNDIVGEIIEYRQLMKLKSTYIDGFIPIMDENNRVHSTFKQTVAATGRISSTEPNLQNIPVREEFGRRIRKAFVSSYEDGLIISADYSQIELRVLAHLSEDEKLIESFLNNEDIHLRTASEVFKVSKEEVTSEMRRRAKAVNFGIVYGISDYGLSKDLKISRKEAKEYIDNYFDRYKGVKNYIDSIVKFAKENGYVTTILNRRRYIPEINSKNFNQRSFGERMAMNTPIQGSAADIIKMSMVKVYNELKERGLKSRLILQVHDELIIDTHPDEVEIVKELLKSIMENIIKLKVPLVVDIGQGKNWYDAK",–,–,–,–,–,–,–,–,–,–,28 ± 1,16 ± 1
"Clostridium stercorarium DNA polymerase, N-terminal His6 tag (Cst-His), SEQ ID NO:14 (Thermoclostridium stercorarium subsp. stercorarium DSM 8532) (protein) MKYLLPTAAAGLLLLAAQPAMAMDPKIILIDGNSILNRGFYALSGRSMLTTSTGLYTNAVFAFVNILNKYIEEENPDYIAVAFDLRAKTFRHGLYEGYKAQRKGMPDELAMQIPLAKEVLRAMNIAIIEHEGYEADDIIGSLSLKAEKENFDVIILTGDRDSFQLISDRVKVILPSTKAGKTETNVYDKQAIIDKYGVLPHQLIDVKGLMGDSSDNIPGVPGVGEKTALSLISAYGTLEGVYEHIDEIKQPKLKASLIEYKDQAFLSRKLGTIVRNLELCASLEDLKRKEINRKELLNVFRKLEFESIISKMNLASAEVTELPPAPEELKITHISAAEDLKKWIAYLLNQKNISVLQLIDREDSYSSRLSGLALCTGDEVFYIETGTALPENLIATELKELWQNENIHKIGHNIKEFITWLLKHDVELNGLYFDTMIAEYLIDSIRNGYPIASLSHKYLNRSVPSLDELLGKGKGAKKYSEIPPERLKDYSAYNVKAIFDIWPMQKKVLQENRQEELFNDIELPLITVLASMEYHGFKVDAAKLHEYGEVLLSRIKDLEKVIYMLAGEEFNINSTKQLGTILFEKLKLPVVKSTKTGYSTDVEVLEELYYKHDIIPCIIEYRQLTKLYTTYAEGLEKVINPVTGKIHSSFNQTVTATGRISSTEPNLQNIPVRHEMGREIRKAFIPSSENAVFVDADYSQIELRVLAHITGDEALINAFVKGEDIHTATASLVFDVAPEDVTPELRRKAKAVNFGIVYGISDYGLARDLGITRKEAKRYIDDYFAKYPKVKTYVDEIVRVGQEQGYVETLFHRRRYLPELASKNFHQRSFGKRVAMNTPIQGTAADIIKIAMVKVYKALKESGLKSRLILQVHDELVIETFEDELETVKELVKKCMEEAVELSVPLVVDVSIGKNWYEAS",–,–,–,–,–,–,–,–,–,–,40 ± 13,88 ± 5
